Source: PMC10334471, “Tumor-targeted dual-action NSAID-platinum(IV) anticancer prodrugs” (Inorganic Chemistry Frontiers, 2023)

Columns and labels:
CT26 allografts [1] = type: in vivo; settings: Asa 50 mg kg^−1 p.o.
Experimental: (§1) All experiments were executed according to the regulation of the Ethics Committee for the Care and Use of Laboratory Animals at the Medical University Vienna. 8–12 weeks old BALB/c were kept in a pathogen-free environment with a 12 h light dark-cycle with ad libitum access to food and water. Every procedure was performed in a laminar airflow under sterile condition. Tumor growth and possible side effects of drug treatment were evaluated by daily recording the tumor size by caliper measurement according to the formula length × width^2/2 and parameters of the animal's overall health conditions.
(§2) CT26 cells (5 × 10^5 cells in 50 μl serum-free medium) were injected s.c. into the right flank of female BALB/c mice. […] Asa was treated orally using 50 mg kg^−1 in 5% DMSO/0.9% NaCl. Every day, the animals were monitored for the overall health conditions. Additionally, tumor size was measured. In case of a decreased body weight of ∼20% or ulcerated tumors, animals were sacrificed by cervical dislocation and tumors as well as organs were collected.

CT26 allografts [2] = experiment: Oral anticancer activity in CT26 allografts; type: in vivo, Balb/c mice
Experimental: It is well known that COX-2 is involved in the paracrine signaling between immune cells, resulting in a pro-tumorigenic tumor microenvironment.[10,33] Consequently, we got interested in the impact of the Asa ligand on the anticancer activity of the drugs in vivo. […] As Asa is clinically applied p.o., we tested the efficacy of OxAsaOAc and asplatin in an oral application setting. […] For the therapy experiment, the animals were treated with OxAsaOAc and asplatin for five subsequent days over two weeks.
as §1

[3] = Hydrolysis of Asa spiked in fresh murine blood (HPLC-MS); settings: after 30 min blood clotting and serum extraction
Experimental: To this end, we spiked Asa in fresh murine blood, isolated the serum, applied the extraction protocol and measured the samples via HPLC-MS.
The extraction method for acetylsalicylic acid and salicylic acid from Grobecker and coworkers was used.[26] For method validation and quantification, 99 μl mouse serum were spiked with Asa or salicylic acid dissolved in 1 μl DMSO in order to obtain a range of concentrations from 1 to 100 μM. Immediately afterwards the samples were acidified with 100 μl HCl/H3PO4 (0.1 M each) and extracted via addition of 600 μl of acetonitrile. After vigorous shaking for 1 min the suspension was stored at 4 °C for ten minutes before being centrifuged at 9500g for 10 min. The supernatant was taken up with a pipette and transferred into an Eppendorf tube with approx. 100 mg of solid NaCl. After vigorous shaking, the samples were again stored at 4 °C for 5 min and centrifuged at 9500 g for 5 min. The organic layer was taken up and measured on an Agilent 1260 Infinity II system using a Waters Acquity UPLC BEH C18 1.7 μm 3.0 × 50 mm column coupled to an Agilent InfinityLab LC/MSD mass spectrometer in negative mode. Milli-Q water, containing 0.1% formic acid, and acetonitrile containing 0.1% formic acid were used as eluents. A gradient of 5–95% acetonitrile in 6 min was used.

[4] = Stability in aqueous buffer pH 7.4 (HPLC); type: physicochemical; settings: for Stability in aqueous solution: 1 mM, 250 mM phosphate buffer pH 7.4, 20 °C, 25 h, HPLC
Experimental: (§3) Phosphate buffer (250 mM, pH 7.4) containing 1 mM platinum compound was incubated at 20 °C, with and without the addition of 10 eq. L-ascorbic acid. […] A gradient of 5–95% over 5 minutes was used. To evaluate the current state of the reaction, the peak area of the parental complex was used.

[5] = Reduction kinetics with 10 eq. ascorbic acid (UHPLC); type: physicochemical
Experimental: as §3

[6] = Released salicylic acid in serum of mice after single i.v. administration (UHPLC-MS)
Experimental: After 10 min, 1 h and 24 h blood was collected via the facial vein. Serum was isolated by centrifugation at 900 g for 10 min for two times and stored at −80 °C. Platinum content was detected by ICP-MS measurements, using an Agilent 7800 (Agilent Technologies, Tokyo, Japan) equipped with an Agilent SPS 4 autosampler (Agilent Technologies, Tokyo, Japan) and a MicroMist nebulizer. The Agilent MassHunter software package (Workstation Software, Version C.01.04, 2018) was used for data evaluation. The ICP-MS operation parameters are given in Table S1. ^† Salicylic acid was extracted and detected as described above.

Caco-2 = experiment: MTT assay, 72 h, Caco-2; type: cell-based; settings: Caco-2, MTT, 72 h treatment, mean ± SD
Experimental: (§4) All cell cultures were grown at 37 °C in a humidified atmosphere containing 5% CO2. HCT116, RKO and HT-29 cells were cultured in McCoy's 5A Modified Media (Sigma-Aldrich, St. Louis, MO, USA) supplemented with 10% heat-inactivated fetal calf serum (FCS, PAA, Linz, Austria) and 2 mM glutamine (Sigma-Aldrich, St. Louis, MO, USA). The murine (Balb/c) colon cancer cell model CT26 (purchased from American Type Culture Collection, Manassas, VA, USA) were cultured in DMEM/F12 supplemented with 10% fetal calf serum (FCS). SW480 and Caco-2 cells were cultured in MEME media supplemented with 10% and 20% FCS, respectively. All cell culture media and reagents were purchased from Sigma-Aldrich Austria. […] The cells were regularly checked for Mycoplasma contamination.
(§5) Depending on their proliferation rate, cells were seeded at a density of 3500–5000 cells per well in 96-well microtiter plates and allowed to adhere overnight. […] Cell viability was determined using the 3-(4,5-dimethylthiazol-2-yl)-2,5-diphenyltetrazolium bromide (MTT) assay (EZ4U, Biomedia, Vienna, Austria) according to the manufacturer's recommendation. Depending on the metabolic capacity, the cell lines were incubated between one and three hours at 37 °C and subsequently absorbance was measured at 450 nm (620 nm as a reference) with a Tecan Reader infinite® M200Pro (Tecan Group Ltd, Switzerland). Data were analyzed using Graph Pad prism (version 8.0.1) by using the point-to-point function. […] Following, dose–response curves were calculated using the point-to-point function.

RKO = experiment: MTT assay, 72 h, RKO; type: cell-based; settings: 72 h treatment, mean ± SD
Experimental: as §4, §5

SW480 = experiment: MTT assay, 72 h, SW480; type: cell-based; settings: 72 h treatment, mean ± SD
Experimental: as §4, §5

HT-29 = experiment: MTT assay, 72 h, HT-29; type: cell-based; settings: HT-29, MTT, 72 h treatment, mean ± SD
Experimental: as §4, §5

HCT116 = experiment: MTT assay, 72 h, HCT116; type: cell-based; settings: mean ± SD
Experimental: as §4, §5

HCT116/OxR = experiment: MTT assay, 72 h, HCT116/OxR (oxaliplatin-resistant); type: cell-based; settings: mean ± SD
Experimental: as §4, §5

CT26 (murine) = experiment: MTT assay, 72 h, CT26; type: cell-based; settings: 72 h treatment, mean ± SD
Experimental: as §4, §5

[7] = Preliminary oral tolerability experiments in tumor-free mice; type: in vivo; settings: p.o., equivalent to 7.5 mg kg^−1 Asa and 12.5 mg kg^−1 cisplatin
Description: It is well known that COX-2 is involved in the paracrine signaling between immune cells, resulting in a pro-tumorigenic tumor microenvironment.[10,33] Consequently, we got interested in the impact of the Asa ligand on the anticancer activity of the drugs in vivo. Therefore, we chose immune-competent murine colon cancer CT26 allografts as test system, which were characterized by high COX-2 expression (Fig. S4 ^†). […] Thus, the experiment was stopped on day 19 due to a distinct drop in body weight in these animals. As Asa is clinically applied p.o., we tested the efficacy of OxAsaOAc and asplatin in an oral application setting. […] For the therapy experiment, the animals were treated with OxAsaOAc and asplatin for five subsequent days over two weeks. […] Consequently, we concluded that the drug doses reaching the tumor in these therapy settings were insufficient, which prompted us to aim for carrier systems with enhanced tumor-targeting properties.

[8] = Serum levels and organ distribution of platinum in CT26-bearing mice (ICP-MS); type: in vivo, Balb/c mice; settings: 24 h after single i.v. dose equimolar to 9 mg kg^−1 oxaliplatin
Experimental: CT26 cells (5 × 10^5 cells in 50 μl serum-free medium) were injected subcutaneously (s.c.) into the right flank of female BALB/c mice. […] After 24 h, the animals were anesthetized and blood was drawn. The animals were sacrificed by cervical dislocation and tumors as well as organs were collected for measurement with ICP-MS. To isolate serum and blood pellets, blood was centrifuged for 10 min at 3000 rpm. The supernatant characterized as serum was transferred to a new tube and centrifuged again to get rid of residual red blood cells.

CT26 allografts [9] = experiment: Anticancer activity i.v. in CT26-bearing mice; type: in vivo, Balb/c mice
Experimental: as §1, §2

albumin = biological target: T1, albumin (Bos taurus, UniProt P02769); experiment: Albumin binding in fetal calf serum by SEC-ICP-MS; type: in vitro ADME; settings: 100 μM in FCS (150 mM phosphate buffer, pH 7.4), 37 °C
T1 construct: Fetal calf serum was purchased from Sigma-Aldrich and buffered with 150 mM phosphate pH 7.4; tissue Sigma-Aldrich; host or cells: fetal calf serum
T1 sequence (P02769 25-607): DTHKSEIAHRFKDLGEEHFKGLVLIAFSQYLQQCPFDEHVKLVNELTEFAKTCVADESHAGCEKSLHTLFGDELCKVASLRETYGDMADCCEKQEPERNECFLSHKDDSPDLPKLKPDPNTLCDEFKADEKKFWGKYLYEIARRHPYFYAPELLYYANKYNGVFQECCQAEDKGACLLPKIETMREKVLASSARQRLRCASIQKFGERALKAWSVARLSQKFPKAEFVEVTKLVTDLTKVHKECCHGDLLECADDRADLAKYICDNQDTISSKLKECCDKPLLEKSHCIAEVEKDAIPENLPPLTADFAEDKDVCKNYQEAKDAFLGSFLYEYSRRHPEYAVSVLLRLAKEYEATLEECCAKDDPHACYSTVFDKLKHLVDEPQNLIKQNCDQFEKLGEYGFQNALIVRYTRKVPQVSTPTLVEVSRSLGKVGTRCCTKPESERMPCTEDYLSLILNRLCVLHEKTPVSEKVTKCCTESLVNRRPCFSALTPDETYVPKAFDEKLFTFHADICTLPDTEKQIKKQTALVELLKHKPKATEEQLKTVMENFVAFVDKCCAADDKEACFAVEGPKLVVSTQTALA
Experimental: Fetal calf serum was purchased from Sigma-Aldrich and buffered with 150 mM phosphate pH 7.4 in order to guarantee a stable pH. The platinum(IV) complexes (5 mM) were dissolved in 150 mM phosphate buffer (pH 7.4) and diluted 1 : 50 in the buffered serum to obtain a final concentration of 100 μM. The samples were then incubated in the autosampler at 37 °C and analyzed every 1 h for 6 h. Between each sample a pure water blank was measured. For SEC-ICP-MS measurements an Agilent 1260 Infinity system coupled to an Agilent 7800 ICP-MS equipped with a dynamic reaction cell was used. Oxygen (purity 5.5, Messer Austria GmbH, Gumpoldskirchen, Austria) was used as reaction gas.

[10] = Homo sapiens, HCT-116, 72 h treatment
[11] = compared to all four non-albumin-binding drugs

Structure (SMILES): CC(=O)Oc1ccccc1C(=O)O [Asa, acetylsalicylic acid]
- Response of tumor model (tumor growth) (CT26 allografts [1]): responsiveness
- Impact on tumor growth (CT26 allografts [2]; Asa 15 mg kg^−1 p.o.): no impact on tumor growth
- Hydrolysis of Asa to salicylic acid [3]: more than half of Asa was hydrolyzed to salicylic acid

Structure (SMILES): CC(=O)Oc1ccccc1C(=O)[O][Pt]([OH])([Cl])[Cl].N.N [Asplatin]
- Stability in aqueous solution [4]: high stability
- Remaining intact platinum(IV) complex at 1 h ([5]; 1 mM, 250 mM phosphate buffer pH 7.4, 20 °C, 10 eq. ascorbic acid, 1 h): no remaining intact platinum(IV) complex could be observed
- Free salicylic acid in serum, share of administered dose ([6]; 10 min after single i.v. dose equimolar to 9 mg kg^−1 oxaliplatin, tumor-free Balb/c mice): ~30 mol%
- Salicylic acid level in serum ([6]; 24 h after single i.v. dose equimolar to 9 mg kg^−1 oxaliplatin, below LOD): < 3 µM
- IC50 (Caco-2): 6.4 ± 1.1 µM
- IC50 (RKO): 0.9 µM
- IC50 (SW480): 0.6 ± 0.1 µM
- IC50 (HT-29): 9.2 ± 0.6 µM
- IC50 (HCT116; 72 h treatment): 2.2 ± 0.1 µM
- IC50 (HCT116/OxR; 72 h treatment): 8.7 ± 1.8 µM
- IC50 (CT26 (murine)): 2.5 ± 0.2 µM
- Oral dose that could be used (tolerability) [7]: 20.7 mg/kg
- Impact on tumor growth (CT26 allografts [2]; asplatin 20.7 mg kg^−1 p.o., five subsequent days over two weeks): none of the drugs had any impact on tumor growth
- Platinum levels in liver and kidney [8]: exceptionally high
- Toxicity i.v. (CT26 allografts [9]; reason for lower i.v. dose equimolar to 3 mg kg^−1 cisplatin): high toxicity

Structure (SMILES): Cc1ccc(-c2cc(C(F)(F)F)nn2-c2ccc(S(N)(=O)=O)cc2)cc1 [Celecoxib]
- IC50 (Caco-2; Homo sapiens): 79.2 ± 3.6 µM
- IC50 (RKO; Homo sapiens): 79.3 ± 4.9 µM
- IC50 (SW480; Homo sapiens): 83.1 ± 1.5 µM
- IC50 (HT-29; Homo sapiens): 68 ± 6.4 µM
- IC50 (HCT116; [10]): 76.2 ± 4.3 µM
- IC50 (HCT116/OxR; [10]): 79.2 ± 2.7 µM
- IC50 (CT26 (murine); Mus musculus): 60.9 ± 2.5 µM

Structure (SMILES): N.N.[Cl][Pt][Cl] [Cisplatin, cisplatin]
- IC50 (RKO): 1.6 ± 0.3 µM
- IC50 (SW480): 7.8 ± 1.3 µM
- IC50 (HT-29): 10.1 ± 0.3 µM
- IC50 (HCT116; 72 h treatment): 3.1 ± 0.5 µM
- IC50 (HCT116/OxR; 72 h treatment): 10.4 ± 1.8 µM
- IC50 (CT26 (murine)): 1.2 ± 0.2 µM

Structure (SMILES): CC(=O)[O][Pt-2]12([O]C(C)=O)([NH2+][C@@H]3CCCC[C@H]3[NH2+]1)[O]C(=O)C(=O)[O]2 [Ox(OAc)2]
- Stability in aqueous solution [4]: high stability
- Intact complex after 6 h ([5]; 1 mM, 250 mM phosphate buffer pH 7.4, 20 °C, 10 eq. ascorbic acid, 6 h): 97%
- Intact complex after 24 h ([5]; 1 mM, 250 mM phosphate buffer pH 7.4, 20 °C, 10 eq. ascorbic acid, 24 h): 81%
- IC50 (RKO): 9 ± 1 µM
- IC50 (SW480): 13.2 ± 2.5 µM
- IC50 (HT-29): 136 ± 34.6 µM
- IC50 (HCT116; 72 h treatment): 17.4 ± 2.4 µM
- IC50 (HCT116/OxR; 72 h treatment): > 100 µM
- IC50 (CT26 (murine)): 22.5 ± 2.8 µM

Structure (SMILES): CC(=O)Oc1ccccc1C(=O)[O][Pt-2]12([O]C(=O)NCCOCCOCCOCCOCCN3C(=O)C=CC3=O)([NH2+][C@@H]3CCCC[C@H]3[NH2+]1)[O]C(=O)C(=O)[O]2 [OxAsaMal, (OC-6-34)-(2-acetoxybenzoato)[(1R,2R)-1,2-cyclohexanediamino]oxalato[(14-(2,5-dioxo-2,5-dihydro-1H-pyrrol-1-yl)-3,6,9,12-tetraoxatetradecyl)carbamato]platinum(IV)]
- Stability of the platinum core ([4]; phosphate-buffered saline (PBS) pH 7.4, 24 h): high stability of the platinum core
- Reduction behavior (monitored by released Asa and oxaliplatin) ([5]; in the presence of ascorbic acid, comparable to OxAsaOAc): slow reduction behavior
- Fraction bound to the albumin fraction (albumin; 0 h time point): 77%
- Fraction bound to the albumin fraction (albumin; after 1 h): 95%
- Platinum plasma levels [8, 11]: significantly higher plasma levels
- Tumor accumulation of platinum [8, 11]: higher tumor accumulation
- Prolonged overall survival (CT26 allografts [9]; i.v., 4-times over 2 weeks, dose equimolar to 9 mg kg^−1 oxaliplatin, CT26): ~20 days
- Tolerability (body weight) (CT26 allografts [9]; i.v., 4-times over 2 weeks, doses equimolar to 9 mg kg^−1 oxaliplatin): well tolerated
- Anticancer activity (tumor growth, overall survival) (CT26 allografts [9]; i.v., 4-times over 2 weeks, doses equimolar to 9 mg kg^−1 oxaliplatin, CT26): long-lasting disease control over several days
